Legend:
[1] = test system: carbapenem-resistant A. baumannii (CRAB) isolates (n = 67); assay: MIC, broth microdilution (EUCAST), carbapenem-resistant A. baumannii isolates; format: cell-based, Acinetobacter baumannii; conditions: ETZ fixed 8 mg/L in combinations; for MIC: Acinetobacter baumannii
From the text: (§1) The bacterial strains used in this study comprised 208 clinical isolates from the Spanish National Acinetobacter spp. 2020 Multicenter Collection, which was previously characterized in detail by our research group, including whole-genome sequencing, phylogenetics studies, clonal dynamics, and resistance mechanisms ([2], [29]). Additionally, a collection of A. baumannii ATCC 17978 transformants coding the blaOXA-23, blaOXA-24/40, blaOXA-51, blaOXA-58, blaOXA-143, and blaOXA-201 genes, previously constructed and described by our group ([30]), was used to determine the activity of enmetazobactam against strains carrying the main CHDLs of A. baumannii.
(§2) The antimicrobial susceptibility of the 208 Acinetobacter spp. isolates was assessed using the broth microdilution method, as described in the European Committee on Antimicrobial Susceptibility Testing (EUCAST) v.15 guidelines (http://www.eucast.org/clinical_breakpoints). […] MICs for enmetazobactam alone were assessed as well. […] Subsequently, MIC testing was also conducted with a collection of A. baumannii ATCC 17978 transformants expressing clinically relevant OXA-like carbapenemase genes.
(§3) The A. baumannii ATCC 19606 strain was used as the reference strain in all susceptibility experiments, in duplicate assays. Antibiotics were purchased from Sigma-Aldrich, except enmetazobactam and durlobactam, which were obtained from Advanz Pharma and MedChemExpress, respectively.

[2] = test system: carbapenem-susceptible A. baumannii isolates (n = 54); assay: MIC, broth microdilution (EUCAST), carbapenem-susceptible A. baumannii isolates; format: cell-based, Acinetobacter baumannii; conditions: for MIC: Acinetobacter baumannii, in combinations ETZ fixed at 8 mg/L
From the text: as §1, §2, §3

C[C@@H](O)[C@H]1C(=O)N2C(C(=O)O)=C(SCCN=CN)C[C@H]12 [imipenem]
61.1: MIC distribution 0.12 [2]
0.12 µg/mL: MIC ([2]; isolate Ab1, ST 164, ADC-6, OXA-91) | MIC ([2]; isolate Ab11, ST 239, ADC-2, OXA-51) | MIC ([2]; isolate Ab61, ST 1639, ADC-7, OXA-64) | MIC ([2]; isolate Ab79, ST 106, ADC-11, OXA-78) | MIC ([2]; isolate Ab80, ST 2182, ADC-6, OXA-208)
34.3: MIC distribution 16 ([1]; cumulative share of CRAB isolates (n = 67) at MIC 16 mg/L)
16 µg/mL: MIC ([1]; isolate Ab56, ST 1, ADC-75, OXA-69, OXA-23) | MIC ([1]; isolate Ab109, ST 1, ADC-75, OXA-69, OXA-23) | MIC ([1]; isolate Ab133, ST 2, ADC-30, OXA-66, OXA-58, TEM-12) | MIC ([1]; isolate Ab134, ST 2, ADC-30, OXA-66, OXA-58, TEM-12) | MIC ([1]; isolate Ab141, ST 745, ADC-30, OXA-66, OXA-58) | MIC ([1]; isolate Ab171, ST 2, ADC-30, OXA-66, OXA-23) | MIC ([1]; isolate Ab182, ST 2, ADC-30, OXA-66, OXA-23) | MIC ([1]; isolate Ab183, ST 2, ADC-30, OXA-66, OXA-23) | MIC ([1]; isolate Ab204, ST 2, ADC-30, OXA-66, OXA-23)
64 µg/mL: MIC ([1]; isolate Ab174, ST 2, ADC-30, OXA-66, OXA-23) | MIC ([1]; isolate Ab180, ST 2, ADC-30, OXA-66, OXA-24/40) | MIC ([1]; isolate Ab191, ST 2, ADC-30, OXA-66, OXA-23) | MIC ([1]; isolate Ab192, ST 2, ADC-30, OXA-66, OXA-23)
32 µg/mL: MIC ([1]; isolate Ab83, ST 25, ADC-5, OXA-64, OXA-23) | MIC ([1]; isolate Ab137, ST 85, ADC-2, OXA-94, OXA-23) | MIC ([1]; isolate Ab138, ST 745, ADC-30, OXA-66, OXA-58) | MIC ([1]; isolate Ab140, ST 85, ADC-2, OXA-94, OXA-23) | MIC ([1]; isolate Ab144, ST 745, ADC-30, OXA-66, OXA-58) | MIC ([1]; isolate Ab169, ST 2, ADC-30, OXA-66, OXA-23) | MIC ([1]; isolate Ab173, ST 2, ISAba1-ADC-30, OXA-66, OXA-23) | MIC ([1]; isolate Ab179, ST 2, ADC-30, OXA-66, OXA-23) | MIC ([1]; isolate Ab181, ST 2, ADC-30, OXA-66, OXA-23) | MIC ([1]; isolate Ab184, ST 2, ADC-30, OXA-66, OXA-23) | MIC ([1]; isolate Ab186, ST 2, ADC-30, OXA-66, OXA-23) | MIC ([1]; isolate Ab194, ST 2, ADC-30, OXA-66, OXA-23) | MIC ([1]; isolate Ab199, ST 2, ADC-30, OXA-66, OXA-23) | MIC ([1]; isolate Ab201, ST 2, ADC-30, OXA-66, OXA-23)
0.25 µg/mL: MIC ([2]; isolate Ab34, ST 2182, ADC-2, OXA-130) | MIC ([2]; isolate Ab38, ST 866, ADC-2, OXA-385) | MIC ([2]; isolate Ab40, ST 2176, ADC-2, OXA-64) | MIC ([2]; isolate Ab50, ST 2176, ADC-2, OXA-64) | MIC ([2]; isolate Ab57, ST 1470, ADC-58, OXA-106) | MIC ([2]; isolate Ab58, ST 6, ADC-2, OXA-94) | MIC ([2]; isolate Ab62, ST 265, ADC-2, OXA-91) | MIC ([2]; isolate Ab67, ST 1, ADC-11, OXA-69)
100: MIC distribution 64 ([1]; cumulative share of CRAB isolates (n = 67) at MIC 64 mg/L)
0: MIC distribution 0.12 ([1]; cumulative share of CRAB isolates (n = 67) at MIC 0.12 mg/L) | MIC distribution 0.25 ([1]; cumulative share of CRAB isolates (n = 67) at MIC 0.25 mg/L) | MIC distribution 0.5 ([1]; cumulative share of CRAB isolates (n = 67) at MIC 0.5 mg/L) | MIC distribution 1 ([1]; cumulative share of CRAB isolates (n = 67) at MIC 1 mg/L) | MIC distribution 2 ([1]; cumulative share of CRAB isolates (n = 67) at MIC 2 mg/L) | MIC distribution 4 ([1]; cumulative share of CRAB isolates (n = 67) at MIC 4 mg/L) | MIC distribution ≤0.06 ([1]; cumulative share of CRAB isolates (n = 67) at MIC ≤0.06 mg/L)
79.1: MIC distribution 32 ([1]; cumulative share of CRAB isolates (n = 67) at MIC 32 mg/L)
9.0: MIC distribution 8 ([1]; cumulative share of CRAB isolates (n = 67) at MIC 8 mg/L)

From paper PMC12888861, “Antibacterial activity of enmetazobactam against Acinetobacter spp.: a molecular dissection of mechanism of action and resistance determinants” (Antimicrobial Agents and Chemotherapy, 2025)
